Measurements as given in PubChem BioAssay (NCI).
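Five concentrations, 48 hours, 96-well plates. TGI denotes the concentration required for complete inhibition of growth.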

Assays:
Test in all cases: NCI tumour cell line growth inhibition, 48 h
OVCAR-3 ovarian = tested on: OVCAR-3 ovarian
SNB-19 CNS = tested on: SNB-19 CNS
U251 CNS = tested on: U251 CNS
K-562 leukemia = tested on: K-562 leukemia
SF-539 CNS = tested on: SF-539 CNS
DU-145 prostate = tested on: DU-145 prostate
HS 578T breast = tested on: HS 578T breast
LOX IMVI melanoma = tested on: LOX IMVI melanoma
RXF 393 renal = tested on: RXF 393 renal
SK-MEL-28 melanoma = tested on: SK-MEL-28 melanoma

| SMILES | TGI (OVCAR-3 ovarian) | TGI (SNB-19 CNS) | TGI (U251 CNS) | TGI (K-562 leukemia) | TGI (SF-539 CNS) | TGI (DU-145 prostate) | TGI (HS 578T breast) | TGI (LOX IMVI melanoma) | TGI (RXF 393 renal) | TGI (SK-MEL-28 melanoma) |
| --- | --- | --- | --- | --- | --- | --- | --- | --- | --- | --- |
| CCCCCCCCCCCCCCCCOC[C@H](COC(c1ccccc1)(c1ccccc1)c1ccccc1)O[P+](=S)OC (some centres not stated) | > 100 µM | > 100 µM | > 100 µM | > 100 µM | > 100 µM | > 100 µM | > 100 µM | > 100 µM | > 100 µM |  |
| FC(F)(Sc1ncccn1)c1nc2ccccc2o1 | > 100 µM |  | > 100 µM | > 100 µM | > 100 µM | > 100 µM |  |  | > 100 µM | > 100 µM |
| CN=C1C=C(/N=C2/C=C(N/C(=C\C#N)C(C)(C)O)OC2(C)C)OC1(C)C | > 100 µM | > 100 µM | > 100 µM | 80.4 µM | > 100 µM | > 100 µM | > 100 µM | > 100 µM |  | > 100 µM |
| CN1CCN(Cc2ccc(C(=S)Nc3ccccc3)s2)CC1 | > 100 µM | > 100 µM | > 100 µM | 95.9 µM | > 100 µM | > 100 µM | > 100 µM | 31.9 µM |  | 36.1 µM |
| C[C@]12CC[C@H]3[C@@H](CCC4=C/C(=N/OCCN5CCCCC5)CC[C@@]43C)[C@@H]1CC[C@@H]2O | 32 µM | 18.5 µM | 27.1 µM | 7.25 µM |  | 63.5 µM |  | 57.3 µM | 40.8 µM | 28 µM |
| O=C(CN1CCCC1)Nc1ccc2c(c1)C1Oc3ccccc3CC1CO2 (configuration not stated) | > 100 µM |  | 56.5 µM | > 100 µM | 39.5 µM | > 100 µM |  | 44.5 µM |  |  |
| Cn1c(COC(=O)NC2CCCCC2)c(COC(=O)NC2CCCCC2)c2ccc3ccccc3c21 | > 100 µM | > 100 µM | > 100 µM | > 100 µM | 66.2 µM |  | > 100 µM | > 100 µM | 83.3 µM |  |
| O=c1[nH]c(NCCCCCO)nc2nc[nH]c12 | > 100 µM | > 100 µM | > 100 µM | > 100 µM |  | > 100 µM | > 100 µM | > 100 µM |  |  |
| N#CC(c1cc(Cl)ncn1)c1nc2cc(C(F)(F)F)ccc2s1 (configuration not stated) | 17.4 µM | 22.6 µM | 17.1 µM | > 100 µM | 20.9 µM | > 100 µM |  | 11.8 µM | 19.7 µM | 37.4 µM |
| N#Cc1nc(-c2ccsc2)oc1N |  | > 100 µM | > 100 µM | > 100 µM |  | > 100 µM | > 100 µM | > 100 µM | > 100 µM | > 100 µM |
| CCOC(=O)CC1(N)CC2c3ccccc3OC(=O)C2C(=O)N1 (configuration not stated) | > 100 µM | > 100 µM | > 100 µM | > 100 µM |  | > 100 µM | > 100 µM | > 100 µM | > 100 µM | > 100 µM |
| CC(C)(C)[C@H]1NC(=O)CN1C(=O)OCc1ccccc1 |  | > 100 µM | > 100 µM | > 100 µM | > 100 µM | > 100 µM |  | > 100 µM | > 100 µM | > 100 µM |
